From patent US20150313241A1, “Pesticidal Mixtures” (BASF Corporation, priority 2012, published 2015)

System: wheat
Assay: Improvement of plant height in wheat (greenhouse pot trial, Use Example H-2)
Assay type: in vivo
Conditions: wheat cv. J B Asano, 14 days at 20° C., % compared to untreated control (100 = 13.9 cm), pyraclostrobin 5 g ai/100 kg seeds as seed treatment, B. simplex broth 10 ml per seed as drench
Experimental: Pyraclostrobin was applied as commercial seed treatment formulation STAMINA (200 g/L a.i., BASF SE, Ludwigshafen, Germany).
In pot trials in Limburgerhof greenhouses, Bacillus simplex ABU 288 was tested in wheat and maize as solo products and in combination with pyraclostrobin to show effects on plant height. The application of the pyraclostrobin was done as seed treatment and the seeds were treated in the BASF Seed Solutions Technology Center (SSTC) Limburgerhof using a batch lab treater. The respective amounts of seeds was placed in the bowl of the treater and the slurry was dosed on the spinning disk.
The bacterials were grown in shake flasks and used as fermentation broth with a CFU of at least 1×10^12 per ml. This broth was added as a drench solution directly adjacent to the seeds with 10 ml for each seed kernel which makes 50 ml per pot.
The trial was sown in 8 cm pots and a mix of peat substrate and sand (ratio 1:4) was used as a substrate. […]
For the assessment, the plant height from all plants was measured in cm. […]
The expected relative plant height of active compound combinations were determined using Colby's formula (Colby, S. R. “Calculating synergistic and antagonistic responses of herbicide combinations”, Weeds 15, pp. 20-22, 1967) and compared with the observed efficacies. […]

Substance: pyraclostrobin
- Observed relative plant height: 99.4%
